In patent publication US20110071197A1, “BIS-ARYL COMPOUNDS FOR USE AS MEDICAMENTS” (priority 2008, published 2011):

The compounds below were run against T1, Recombinant human LTC4 synthase (Homo sapiens, UniProt Q16873) (assay: LTC4 synthase in vitro assay (HTRF detection of LTC4)). Conditions: total concentration of title compound in the assay 10 μM; HTRF method.
T1 construct: made in house; host or cells: Pichia pastoris
T1 sequence (Q16873 1-150): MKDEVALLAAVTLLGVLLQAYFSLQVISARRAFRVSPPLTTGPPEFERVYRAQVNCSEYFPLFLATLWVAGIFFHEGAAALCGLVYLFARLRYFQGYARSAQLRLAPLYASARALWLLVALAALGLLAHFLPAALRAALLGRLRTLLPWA
Type: biochemical
Description: Alternatively HTRF detection of LTC4 can be used:
In the assay, LTC4 synthase catalyses the reaction where the substrate LTA4 is converted to LTC4. Recombinant human LTC4 synthase is expressed in Piccia pastoralis and the purified enzyme is dissolved in 25 mM Tris-buffer pH 7.8 supplemented with 0.1 mM glutathione (GSH) and stored at −80° C. The assay is performed in phosphate buffered saline (PBS) pH 7.4 and 5 mM GSH in 384-well plates.
The following is added chronologically to each well: • 1. 48 μl LTC4 synthase in PBS with 5 mM GSH. The total protein concentration in this solution is 0.5 μg/ml. • 2. […] Incubation of the plate at room temperature for 10 minutes. • 4. 1 μl LTA4 (final conc. 2.5 μM). • 5. Incubation of the plate at room temperature for 5 minutes. • 6. 10 μl of the incubation mixture is analysed using homogeneous time resolved fluorescent (HTRF) detection.

Compared with `Cc1nc(C(F)(F)F)ccc1C(=O)Nc1ccc(Oc2ccc(NC(=O)c3ccc(OC(C)C)cc3)cc2)cc1C(=O)O` [8:14, 5-[4-(4-isopropoxybenzoyl-amino)phenoxy]-2-[(2-methyl-6-trifluoromethylpyridine-3-carbonyl)amino]benzoic acid], `CC(C)Oc1ccc(C(=O)Nc2ccc(Oc3ccc(N(C)C(=O)c4ccc(C(F)(F)F)cc4)cc3)cc2C(=O)O)cc1` [9:4, 5-(4-((N-methyl)-4-trifluoromethyl-benzamido)phenoxy)-2-(4-isopropoxy-benzamido)benzoic acid] is lower in inhibition at 10 µM: 100% for the first, 99% for the second.

`CC(C)(C)c1ccc(C(=O)Nc2ccc(Oc3ccc(NC(=O)c4cccnc4Cl)c(C(=O)O)c3)cc2)cc1` [8:16, 5-[4-(4-tert-Butylbenzoyl-amino)phenoxy]-2-[(2-chloro-pyridine-3-carbonyl)-amino]benzoic acid] and `CC(C)(C)c1ccc(C(=O)Nc2ccc(Oc3ccc(NC(=O)c4ccccn4)c(C(=O)O)c3)cc2)cc1` [8:18, 5-[4-(4-tert-Butylbenzoyl-amino)phenoxy]-2-[(pyridine-2-carbonyl)-amino]benzoic acid] are the same in inhibition at 10 µM: 99% for the first, 99% for the second.

Compared with `CC(C)(C)c1ccc(C(=O)Nc2ccc(Oc3ccc(NC(=O)c4cc(Cl)cnc4Cl)c(C(=O)O)c3)cc2)cc1` [8:17, 5-[4-(4-tert-Butylbenzoyl-amino)phenoxy]-2-[(2,5-di-chloropyridine-3-carbonyl)-amino]benzoic acid], `CC(C)(C)c1ccc(C(=O)Nc2ccc(Oc3ccc(NC(=O)c4ccc(Cl)nc4Cl)c(C(=O)O)c3)cc2)cc1` [8:20, 5-[4-(4-tert-Butylbenzoyl-amino)phenoxy]-2-[(2,6-di-chloropyridine-3-carbonyl)-amino]benzoic acid] is lower in inhibition at 10 µM: 98% for the first, 96% for the second.

First: COc1cc(Cl)ccc1C(=O)Nc1ccc(Oc2ccc(NC(=O)c3ccc(C(C)(C)C)cc3)cc2)cc1C(=O)O [8:19, 5-[4-(4-tert-Butylbenzoyl-amino)phenoxy]-2-(4-chloro-2-methoxybenzoylamino)-benzoic acid]
Second: CN(C(=O)c1ccc(C(F)(F)F)cc1)c1ccc(Oc2ccc(NC(=O)c3ccc(Cl)cc3Cl)c(C(=O)O)c2)cc1 [9:5, 5-(4-((N-methyl)-4-trifluoromethyl-benzamido)phenoxy)-2-(2,4-dichloro-benzamido)benzoic acid]
The inhibition at 10 µM of the first is higher: 99% for the first, 98% for the second.

First: CCCCc1ccc(C(=O)Nc2cccc(Oc3ccc(NC(=O)c4c(F)cccc4F)c(C(=O)O)c3)c2)cc1 [10:1, 5-[(3-(4-(1-butyl)benzoylamino)-phenoxy)]-2-(2,6-difluorobenzoyl-amino)benzoic acid]
Second: CCCCc1ccc(C(=O)Nc2cccc(Oc3ccc(NC(=O)c4ccccc4OC)c(C(=O)O)c3)c2)cc1 [10:3, 5-[(3-(4-(1-butyl)benzoylamino)-phenoxy)]-2-(2-methoxybenzoyl-amino)benzoic acid]
The inhibition at 10 µM of the first is higher: 98% for the first, 95% for the second.

`CCCCc1ccc(C(=O)Nc2cccc(Oc3ccc(NC(=O)c4ccc(OC(F)(F)F)cc4)c(C(=O)O)c3)c2)cc1` [10:2, 5-[(3-(4(1-butyl)benzoylamino)-phenoxy)]-2-(4-trifluoromethoxy-benzoylamino)benzoic acid] gave an inhibition at 10 µM of 88%.

Compared with `CCCCc1ccc(C(=O)Nc2ccc(Oc3ccc(N(C)C(=O)c4ccc(CCCC)cc4)cc3)cc2C(=O)O)cc1` [9:1, 5-(4-((N-methyl)-4-butylbenz-amido)phenoxy)-2-(4-butylbenz-amido)benzoic acid], `COc1ccc(C(=O)Nc2ccc(Oc3ccc(N(C)C(=O)c4ccc(C(C)(C)C)cc4)cc3)cc2C(=O)O)cc1` [9:2, 5-(4-((N-methyl)-4-tert-butylbenz-amido)phenoxy)-2-(4-methoxybenz-amido)benzoic acid] is lower in “% inh.” value: 100% for the first, 96% for the second.

For `CN(C(=O)c1ccc(C(C)(C)C)cc1)c1ccc(Oc2ccc(NC(=O)c3ccc(Cl)cc3Cl)c(C(=O)O)c2)cc1` [9:3, 5-(4-((N-methyl)-4-tert-butylbenz-amido)phenoxy)-2-(2,4-dichlorobenz-amido)benzoic acid], the “% inh.” value was 99%.
